From patent US12502434B2, “Compound comprising EZH2 inhibitor and E3 ligase binder and pharmaceutical composition for preventing or treating EZH2-associated disease comprising same as active ingredient” (DAEGU-GYEONGBUK MEDICAL INNOVATION FOUNDATION, priority 2019, dated 2025)
Where two headings read alike, the source gives them in different places.

Molecular target: T1, EZH2 protein in LS174T cells (Homo sapiens, UniProt Q15910)
T1 construct: endogenous in cells; host or cells: LS174T
Test: Proteolytic effect in colorectal cancer cells (Western blotting)
Assay type: cell-based
Details: for EZH2 proteolytic effect by Western blotting (figure, in words): FIGS. 1 to 5
Experimental: After 72 hours of the treatment, the cells were collected and lysed using RIPA buffer (50 mM Tris, pH 7.5, 150 mM NaCl, 1% Triton X-100, 0.1% SDS, […], 0.5% deoxycholate, and protease inhibitor cocktail), followed by sonication (30 sec on/30 sec off, 5 cycles) to prepare a cell lysate.

[1] = EZH2 protein, LS174T cells, 1 μM, 72 hours
[2] = EZH2 protein, LS174T cells, 1 uM, 72 hours, Western blotting

T1 sequence (Q15910 whole entry): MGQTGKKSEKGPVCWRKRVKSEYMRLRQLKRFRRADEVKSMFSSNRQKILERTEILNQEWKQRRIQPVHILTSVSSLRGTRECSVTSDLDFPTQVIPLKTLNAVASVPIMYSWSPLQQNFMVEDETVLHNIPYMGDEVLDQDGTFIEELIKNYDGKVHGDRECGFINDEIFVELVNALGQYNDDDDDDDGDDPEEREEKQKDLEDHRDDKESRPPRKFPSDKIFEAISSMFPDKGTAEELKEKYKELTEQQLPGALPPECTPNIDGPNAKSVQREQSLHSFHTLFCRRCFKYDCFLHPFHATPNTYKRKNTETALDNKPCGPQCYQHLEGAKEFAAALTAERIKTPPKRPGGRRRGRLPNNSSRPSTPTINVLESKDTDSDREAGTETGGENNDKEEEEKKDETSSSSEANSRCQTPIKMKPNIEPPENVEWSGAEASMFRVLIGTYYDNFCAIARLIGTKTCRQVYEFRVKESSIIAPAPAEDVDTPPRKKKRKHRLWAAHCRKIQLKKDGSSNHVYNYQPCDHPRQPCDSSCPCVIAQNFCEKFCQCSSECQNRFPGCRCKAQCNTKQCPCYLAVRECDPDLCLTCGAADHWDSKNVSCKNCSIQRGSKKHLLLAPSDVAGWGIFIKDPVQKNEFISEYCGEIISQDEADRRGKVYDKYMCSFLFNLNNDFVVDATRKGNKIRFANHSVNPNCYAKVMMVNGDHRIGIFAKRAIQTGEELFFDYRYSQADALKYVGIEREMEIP
T1 sequence (O75530 whole entry partner): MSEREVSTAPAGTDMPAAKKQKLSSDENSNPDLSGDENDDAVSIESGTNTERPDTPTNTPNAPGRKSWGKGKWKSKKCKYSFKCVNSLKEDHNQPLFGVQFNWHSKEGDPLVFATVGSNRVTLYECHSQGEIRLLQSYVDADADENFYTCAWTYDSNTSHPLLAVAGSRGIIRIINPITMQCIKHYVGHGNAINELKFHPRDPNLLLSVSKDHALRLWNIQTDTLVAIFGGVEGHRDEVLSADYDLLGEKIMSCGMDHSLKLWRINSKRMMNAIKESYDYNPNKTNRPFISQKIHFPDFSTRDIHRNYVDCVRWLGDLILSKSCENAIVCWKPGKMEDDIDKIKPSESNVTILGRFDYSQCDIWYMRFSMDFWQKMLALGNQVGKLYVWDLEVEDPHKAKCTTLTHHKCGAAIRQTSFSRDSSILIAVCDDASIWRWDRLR
T1 sequence (Q15022 whole entry partner): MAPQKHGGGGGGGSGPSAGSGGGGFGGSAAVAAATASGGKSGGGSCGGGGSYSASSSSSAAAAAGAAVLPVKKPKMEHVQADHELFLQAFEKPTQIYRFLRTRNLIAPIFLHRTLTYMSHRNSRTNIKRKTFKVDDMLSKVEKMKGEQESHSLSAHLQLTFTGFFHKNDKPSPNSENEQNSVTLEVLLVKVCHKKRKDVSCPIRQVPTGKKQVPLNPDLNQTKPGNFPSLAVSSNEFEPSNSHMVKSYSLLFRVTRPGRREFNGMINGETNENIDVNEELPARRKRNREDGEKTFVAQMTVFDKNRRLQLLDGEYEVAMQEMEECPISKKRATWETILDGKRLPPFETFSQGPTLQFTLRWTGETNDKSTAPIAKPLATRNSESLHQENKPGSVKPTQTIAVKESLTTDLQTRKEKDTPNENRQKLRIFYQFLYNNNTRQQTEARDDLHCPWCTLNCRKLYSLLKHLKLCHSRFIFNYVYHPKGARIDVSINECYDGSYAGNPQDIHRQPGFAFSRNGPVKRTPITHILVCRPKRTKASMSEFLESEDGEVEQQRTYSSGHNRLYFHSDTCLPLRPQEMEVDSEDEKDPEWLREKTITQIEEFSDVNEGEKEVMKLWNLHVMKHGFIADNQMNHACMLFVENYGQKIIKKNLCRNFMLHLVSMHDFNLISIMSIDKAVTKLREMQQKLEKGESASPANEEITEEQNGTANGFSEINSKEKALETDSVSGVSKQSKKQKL

Structure (SMILES) | Grade (percent value of the protein degradation when treated with 1 μM) [1] | %, degradation at 1 uM [2] | EZH2 proteolytic effect by Western blotting (figure, in words) | effect of degrading EZH2 protein when treated to colorectal cancer cells (in words) (LS174T cells) | %, degradation at 1 uM | Grade (percent value of the protein degradation when treated with 1 μM)
CCN(c1cc(-c2ccc(CN3CCN(CC(=O)N4CCC5(CCN(CCCCNc6cccc7c6C(=O)N(C6CCC(=O)NC6=O)C7=O)CC5)CC4)CC3)cc2)cc(C(=O)NCc2c(C)cc(C)[nH]c2=O)c1C)C1CCOCC1 (stereo not shown) [Example 33, N-((4,6-dimethyl-2-oxo-1,2-dihydropyridine-3-yl)methyl)-4′-((4-(2-(9-(4-((2-(2,6-dioxopiperidine-3-yl)-1,3-dioxoisoindoline-4-yl)amino)butyl)-3,9-diazaspiro[5.5]undecane-3-yl)-2-oxoethyl)piperazine-1-yl)methyl)-5-(ethyl(tetrahydro-2H-pyran-4-yl)amino)-4-methyl-[1,1′-biphenyl]-3-carboxamide] | A (>75%) | 80.85% | confirming the EZH2 proteolytic effect | excellent effects |  | 
CCN(c1cc(-c2ccc(CN3CCN(CC(=O)NCCCCCOCCCOCCC(=O)N[C@H](C(=O)N4C[C@H](O)C[C@H]4C(=O)NCc4ccc(-c5scnc5C)cc4)C(C)(C)C)CC3)cc2)cc(C(=O)NCc2c(C)cc(C)[nH]c2=O)c1C)C1CCOCC1 [Example 43, (2S,4R)-1-((S)-2-(tert-butyl)-19-(4-((3′-(((4,6-dimethyl-2-oxo-1,2-dihydropyridine-3-yl)methyl)carbamoyl)-5′-(ethyl(tetrahydro-2H-pyran-4-yl)amino)-4′-methyl-[1,1′-biphenyl]-4-yl)methyl)piperazine-1-yl)-4,18-dioxo-7,11-dioxa-3,17-diazanonadecanoyl)-4-hydroxy-N-(4-(4-methylthiazole-5-yl)benzyl)pyrrolidine-2-carboxamide] | B (50-75%) | 67.12% |  |  |  | 
CCN(c1cc(-c2ccc(CN3CCN(CC(=O)NCCOc4cccc5c4C(=O)N(C4CCC(=O)NC4=O)C5=O)CC3)cc2)cc(C(=O)NCc2c(C)cc(C)[nH]c2=O)c1C)C1CCOCC1 (stereo not shown) [Example 5, N-((4,6-dimethyl-2-oxo-1,2-dihydropyridine-3-yl)methyl)-4′-((4-(2-((2-((2-(2,6-dioxopiperidine-3-yl)-1,3-dioxoisoindoline-4-yl)oxy)ethyl)amino)-2-oxoethyl)piperazine-1-yl)methyl)-5-(ethyl(tetrahydro-2H-pyran-4-yl)amino)-4-methyl-[1,1′-biphenyl]-3-carboxamide] | D (<25%) | 0% |  |  |  | 
CCN(c1cc(-c2ccc(CN3CCN(CCNCCCCCCNc4cccc5c4C(=O)N(C4CCC(=O)NC4=O)C5=O)CC3)cc2)cc(C(=O)NCc2c(C)cc(C)[nH]c2=O)c1C)C1CCOCC1 (stereo not shown) [Example 21, N-((4,6-dimethyl-2-oxo-1,2-dihydropyridine-3-yl)methyl)-4′-((4-(2-((6-((2-(2,6-dioxopiperidine-3-yl)-1,3-dioxoisoindoline-4-yl)amino)hexyl)amino)ethyl)piperazine-1-yl)methyl)-5-(ethyl(tetrahydro-2H-pyran-4-yl)amino)-4-methyl-[1,1′-biphenyl]-3-carboxamide] | A (>75%) | 83.09% | confirming the EZH2 proteolytic effect | excellent effects |  | 
CCN(c1cc(-c2ccc(CN3CCN(CC(=O)NCCCCCCN[C@H](C(=O)N4C[C@H](O)C[C@H]4C(=O)NCc4ccc(-c5scnc5C)cc4)C(C)(C)C)CC3)cc2)cc(C(=O)NCc2c(C)cc(C)[nH]c2=O)c1C)C1CCOCC1 [Example 38, (2S,4R)-1-((S)-2-((6-(2-(4-((3′-(((4,6-dimethyl-2-oxo-1,2-dihydropyridine-3-yl)methyl)carbamoyl)-5′-(ethyl(tetrahydro-2H-pyran-4-yl)amino)-4′-methyl-[1,1′-biphenyl]-4-yl)methyl)piperazine-1-yl)acetamido)hexyl)amino)-3,3-dimethylbutanoyl)-4-hydroxy-N-(4-(4-methylthiazole-5-yl)benzyl)pyrrolidine-2-carboxamide] | D (<25%) | 9.97% |  |  |  | 
CCN(c1cc(-c2ccc(CN3CCN(CC(=O)NCCCOCCNc4cccc5c4C(=O)N(C4CCC(=O)NC4=O)C5=O)CC3)cc2)cc(C(=O)NCc2c(C)cc(C)[nH]c2=O)c1C)C1CCOCC1 (stereo not shown) [Example 15, N-((4,6-dimethyl-2-oxo-1,2-dihydropyridine-3-yl)methyl)-4′-((4-(2-((3-(2-((2-(2,6-dioxopiperidine-3-yl)-1,3-dioxoisoindoline-4-yl)amino)ethoxy)propyl)amino)-2-oxoethyl)piperazine-1-yl)methyl)-5-(ethyl(tetrahydro-2H-pyran-4-yl)amino)-4-methyl-[1,1′-biphenyl]-3-carboxamide] | D (<25%) | 0% |  |  |  | 
CCN(c1cc(-c2ccc(CN3CCN(CC(=O)NCCCCCCOc4cccc5c4C(=O)N(C4CCC(=O)NC4=O)C5=O)CC3)cc2)cc(C(=O)NCc2c(C)cc(C)[nH]c2=O)c1C)C1CCOCC1 (stereo not shown) [Example 8, N-((4,6-dimethyl-2-oxo-1,2-dihydropyridine-3-yl)methyl)-4′-((4-(2-((6-((2-(2,6-dioxopiperidine-3-yl)-1,3-dioxoisoindoline-4-yl)oxy)hexyl)amino)-2-oxoethyl)piperazine-1-yl)methyl)-5-(ethyl(tetrahydro-2H-pyran-4-yl)amino)-4-methyl-[1,1′-biphenyl]-3-carboxamide] | D (<25%) | 2.91% |  |  |  | 
CCN(c1cc(-c2ccc(CN3CCN(CC(=O)NCCCCCC(=O)N[C@H](C(=O)N4C[C@H](O)C[C@H]4C(=O)NCc4ccc(-c5scnc5C)cc4)C(C)(C)C)CC3)cc2)cc(C(=O)NCc2c(C)cc(C)[nH]c2=O)c1C)C1CCOCC1 [Example 41, (2S,4R)-1-((S)-2-(6-(2-(4-((3′-(((4,6-dimethyl-2-oxo-1,2-dihydropyridine-3-yl)methyl)carbamoyl)-5′-(ethyl(tetrahydro-2H-pyran-4-yl)amino)-4′-methyl-[1,1′-biphenyl]-4-yl)methyl)piperazine-1-yl)acetamido)hexanamido)-3,3-dimethylbutanoyl)-4-hydroxy-N-(4-(4-methylthiazole-5-yl)benzyl)pyrrolidine-2-carboxamide] | D (<25%) | 8.36% |  |  |  | 
CCN(c1cc(-c2ccc(CN3CCN(C(=O)c4cn(CCCCCNc5cccc6c5C(=O)N(C5CCC(=O)NC5=O)C6=O)nn4)CC3)cc2)cc(C(=O)NCc2c(C)cc(C)[nH]c2=O)c1C)C1CCOCC1 (stereo not shown) [Example 32, N-((4,6-dimethyl-2-oxo-1,2-dihydropyridine-3-yl)methyl)-4′-((4-(1-(5-((2-(2,6-dioxopiperidine-3-yl)-1,3-dioxoisoindoline-4-yl)amino)pentyl)-1H-1,2,3-triazole-4-carbonyl)piperazine-1-yl)methyl)-5-(ethyl(tetrahydro-2H-pyran-4-yl)amino)-4-methyl-[1,1′-biphenyl]-3-carboxamide] | C (25-50%) | 31.67% |  |  |  | 
CCN(c1cc(-c2ccc(CN3CCN(Cc4cn(CCCNc5cccc6c5C(=O)N(C5CCC(=O)NC5=O)C6=O)nn4)CC3)cc2)cc(C(=O)NCc2c(C)cc(C)[nH]c2=O)c1C)C1CCOCC1 (stereo not shown) [Example 23, N-((4,6-dimethyl-2-oxo-1,2-dihydropyridine-3-yl)methyl)-4′-((4-((1-(3-((2-(2,6-dioxopiperidine-3-yl)-1,3-dioxoisoindoline-4-yl)amino)propyl)-1H-1,2,3-triazole-4-yl)methyl)piperazine-1-yl)methyl)-5-(ethyl(tetrahydro-2H-pyran-4-yl)amino)-4-methyl-[1,1′-biphenyl]-3-carboxamide] | D (<25%) | 1.52% |  |  |  | 
CCN(c1cc(-c2ccc(CN3CCN(CC(=O)N4CC5(CN(CCCCNc6cccc7c6C(=O)N(C6CCC(=O)NC6=O)C7=O)C5)C4)CC3)cc2)cc(C(=O)NCc2c(C)cc(C)[nH]c2=O)c1C)C1CCOCC1 (stereo not shown) [Example 35, N-((4,6-dimethyl-2-oxo-1,2-dihydropyridine-3-yl)methyl)-4′-((4-(2-(6-(4-((2-(2,6-dioxopiperidine-3-yl)-1,3-dioxoisoindoline-4-yl)amino)butyl)-2,6-diazaspiro[3.3]heptane-2-yl)-2-oxoethyl)piperazine-1-yl)methyl)-5-(ethyl(tetrahydro-2H-pyran-4-yl)amino)-4-methyl-[1,1′-biphenyl]-3-carboxamide] | D (<25%) | 0% |  |  |  | 
CCN(c1cc(-c2ccc(CN3CCN(CC(=O)NCCCCOc4cccc5c4C(=O)N(C4CCC(=O)NC4=O)C5=O)CC3)cc2)cc(C(=O)NCc2c(C)cc(C)[nH]c2=O)c1C)C1CCOCC1 (stereo not shown) [Example 7, N-((4,6-dimethyl-2-oxo-1,2-dihydropyridine-3-yl)methyl)-4′-((4-(2-((4-((2-(2,6-dioxopiperidine-3-yl)-1,3-dioxoisoindoline-4-yl)oxy)butyl)amino)-2-oxoethyl)piperazine-1-yl)methyl)-5-(ethyl(tetrahydro-2H-pyran-4-yl)amino)-4-methyl-[1,1′-biphenyl]-3-carboxamide] |  |  |  |  | 22.74% | D (key: A: >75%; B: 50-75%; C: 25-50%; D: <25%)
